# Values joined by “and” are separate entries in the source; they are usually repeats but may differ in a detail not shown here. Equal entries are not always repeated.
# Legend:
# [1] = molecular target: T1, glucocerebrosidase (Homo sapiens, UniProt P04062); assay: conduritol B-epoxide inhibitable glucocerebrosidase activity in membrane fraction from human spleen; assay type: biochemical
# T1 sequence (P04062 40-536): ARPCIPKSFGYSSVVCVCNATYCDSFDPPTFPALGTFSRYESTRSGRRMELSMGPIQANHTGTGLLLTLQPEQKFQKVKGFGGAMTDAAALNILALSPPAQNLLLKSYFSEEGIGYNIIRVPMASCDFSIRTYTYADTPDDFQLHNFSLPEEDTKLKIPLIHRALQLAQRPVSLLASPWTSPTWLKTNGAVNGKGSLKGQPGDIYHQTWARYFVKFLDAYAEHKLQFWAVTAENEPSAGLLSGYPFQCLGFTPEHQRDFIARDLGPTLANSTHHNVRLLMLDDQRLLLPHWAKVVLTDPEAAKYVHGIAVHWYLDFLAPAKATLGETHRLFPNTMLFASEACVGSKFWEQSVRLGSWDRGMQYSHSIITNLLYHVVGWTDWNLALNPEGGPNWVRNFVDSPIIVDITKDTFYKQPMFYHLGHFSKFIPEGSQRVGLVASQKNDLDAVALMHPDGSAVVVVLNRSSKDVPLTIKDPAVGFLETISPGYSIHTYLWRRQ
# [2] = molecular target: T2, glycogen synthase (Rattus norvegicus, UniProt P17625); assay: glycogen synthase in rat hepatocytes; assay type: cell-based; conditions: at IC50 concentration for glucosylceramidase
# T2 construct: endogenous in cells; host or cells: rat hepatocytes
# T2 sequence (P17625 1-704): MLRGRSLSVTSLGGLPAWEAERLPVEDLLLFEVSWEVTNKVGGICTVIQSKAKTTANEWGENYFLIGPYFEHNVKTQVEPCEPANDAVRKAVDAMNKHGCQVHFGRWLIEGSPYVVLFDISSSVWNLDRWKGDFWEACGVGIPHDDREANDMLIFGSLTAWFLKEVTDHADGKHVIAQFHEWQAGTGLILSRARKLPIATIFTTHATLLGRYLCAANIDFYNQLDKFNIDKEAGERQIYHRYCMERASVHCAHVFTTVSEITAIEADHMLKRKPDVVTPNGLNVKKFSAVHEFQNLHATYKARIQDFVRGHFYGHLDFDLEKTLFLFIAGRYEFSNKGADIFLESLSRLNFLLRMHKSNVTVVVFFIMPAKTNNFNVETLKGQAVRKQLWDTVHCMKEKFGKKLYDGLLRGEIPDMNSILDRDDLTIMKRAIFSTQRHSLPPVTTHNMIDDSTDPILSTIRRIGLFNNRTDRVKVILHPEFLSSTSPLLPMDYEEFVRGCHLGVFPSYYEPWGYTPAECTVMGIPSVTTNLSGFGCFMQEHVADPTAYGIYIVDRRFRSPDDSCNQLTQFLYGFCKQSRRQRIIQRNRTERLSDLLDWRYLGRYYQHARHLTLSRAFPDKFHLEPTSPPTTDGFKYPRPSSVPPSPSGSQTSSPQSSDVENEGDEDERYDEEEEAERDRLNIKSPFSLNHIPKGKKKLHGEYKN
# [3] = molecular target: T3, glucocerebrosidase (Ceredase) (Homo sapiens, UniProt P04062); assay: activity of soluble human placental glucocerebrosidase (Ceredase) towards 4MU-b-glucoside; assay type: biochemical
# T3 construct: purchased Genzyme Corp. Boston,USA; host or cells: human placenta
# T3 sequence (P04062 40-536): T1 sequence (P04062 40-536)
# [4] = molecular target: T1, glucocerebrosidase; assay: glucocerebrosidase activity in intact melanoma cells (4MU-b-glucoside, conduritol B-epoxide sensitive); assay type: cell-based; parameters: the hydrolysis of 4MU-b-glucoside by cultured melanoma cells; endogenous in cells
# [5] = molecular target: T4, glucosylceramide synthase (Homo sapiens, UniProt Q16739); assay: glucosylceramide synthase activity in cultured melanoma cells; assay type: cell-based; conditions: at IC50 concentration for glucosylceramidase
# T4 sequence (Q16739 1-394): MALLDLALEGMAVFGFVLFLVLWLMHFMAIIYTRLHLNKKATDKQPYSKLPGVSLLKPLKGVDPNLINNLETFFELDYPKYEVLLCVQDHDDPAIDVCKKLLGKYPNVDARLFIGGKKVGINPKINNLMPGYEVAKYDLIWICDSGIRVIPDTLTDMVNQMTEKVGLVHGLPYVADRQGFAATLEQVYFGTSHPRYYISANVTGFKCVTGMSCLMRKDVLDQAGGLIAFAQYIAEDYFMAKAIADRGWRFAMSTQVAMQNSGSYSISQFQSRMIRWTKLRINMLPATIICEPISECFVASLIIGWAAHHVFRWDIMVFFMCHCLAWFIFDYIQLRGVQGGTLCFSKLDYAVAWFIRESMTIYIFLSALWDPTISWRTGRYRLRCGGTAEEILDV
# [6] = molecular target: T5, glucosylceramidase (Homo sapiens, UniProt Q9HCG7); assay: glucosylceramidase activity towards 4MU-b-glucoside in conduritol B-epoxide pre-treated membrane suspension from human spleen
# T5 sequence (Q9HCG7 1-927): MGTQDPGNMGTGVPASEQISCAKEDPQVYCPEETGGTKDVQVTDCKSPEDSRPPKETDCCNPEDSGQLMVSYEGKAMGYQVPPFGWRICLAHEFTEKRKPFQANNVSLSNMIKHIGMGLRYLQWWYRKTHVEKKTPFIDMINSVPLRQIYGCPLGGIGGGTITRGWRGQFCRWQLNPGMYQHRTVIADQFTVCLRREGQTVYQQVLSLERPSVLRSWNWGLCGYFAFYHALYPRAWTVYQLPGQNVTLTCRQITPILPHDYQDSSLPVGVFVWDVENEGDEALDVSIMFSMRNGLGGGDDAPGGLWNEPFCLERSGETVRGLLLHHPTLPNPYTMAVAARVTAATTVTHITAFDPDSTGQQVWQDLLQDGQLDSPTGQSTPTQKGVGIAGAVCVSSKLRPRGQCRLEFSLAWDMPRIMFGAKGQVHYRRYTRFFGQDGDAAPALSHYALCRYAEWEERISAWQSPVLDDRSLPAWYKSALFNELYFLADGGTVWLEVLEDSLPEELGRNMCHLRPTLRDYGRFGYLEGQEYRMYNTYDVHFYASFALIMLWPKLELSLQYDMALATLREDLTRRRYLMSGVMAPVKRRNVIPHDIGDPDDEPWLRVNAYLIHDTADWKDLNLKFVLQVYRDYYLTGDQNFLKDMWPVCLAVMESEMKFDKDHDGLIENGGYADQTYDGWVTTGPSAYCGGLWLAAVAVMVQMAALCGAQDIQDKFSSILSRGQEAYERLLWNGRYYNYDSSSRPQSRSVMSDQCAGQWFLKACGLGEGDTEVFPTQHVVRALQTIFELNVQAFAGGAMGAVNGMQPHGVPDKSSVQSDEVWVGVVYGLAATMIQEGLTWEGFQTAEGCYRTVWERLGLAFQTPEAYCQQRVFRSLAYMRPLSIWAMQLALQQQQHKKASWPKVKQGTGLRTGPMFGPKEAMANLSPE
# [7] = molecular target: T6, lysosomal a-glucosidase (Homo sapiens, UniProt P10253); assay: lysosomal a-glucosidase in cultured melanoma cells; assay type: cell-based; parameters: endogenous in cells; conditions: at IC50 concentration for glucosylceramidase
# [8] = molecular target: T5, glucosylceramidase; assay: glucosylceramidase activity in intact melanoma cells (4MU-b-glucoside, conduritol B-epoxide insensitive); assay type: cell-based; parameters: endogenous in cells; conditions: IC50 GLUCOSYLCERAMIDASE
# [9] = molecular target: T6, lysosomal a-glucosidase; assay: purified lysosomal a-glucosidase activity towards 4MU-a-glucoside; assay type: biochemical; conditions: 4MU-a-glucoside, pH 4.0; read-out: apparent Ki A-GLUCOSIDASE
compound,measurement,setting,value
"CC(C)CCC[C@@H](C)[C@H]1CC[C@H]2[C@@H]3CC=C4C[C@@H](OCCCCCN5C[C@H](O)[C@@H](O)[C@H](O)[C@H]5CO)CC[C@]4(C)[C@H]3CC[C@]12C [P24, N-(5-cholesteroloxy-pentyl)-deoxynojirimycin]",IC50,[1],700 nM
same,Ki,"[1]; membrane suspension, 4MU-b-glucoside, pH 5.2, read-out: apparent Ki GLUCOCEREBROSIDASE MEMBRANES",770 nM
same,inhibition of glycogen synthase,[2],no inhibition
same,IC50,[3],800 nM
same,Ki,"[3]; soluble enzyme, 0.25% sodium taurocholate, 0.1% Triton X-100, pH 5.2, read-out: apparent Ki GLUCOCEREBROSIDASE CEREDASE",960 nM
same,IC50,[4],800 nM
same,inhibition of glucocerebrosidase activity,"[4]; melanoma cells, at IC50 for glucosylceramidase or ten-fold higher concentrations",no significant inhibition
same,inhibition of glucosylceramide synthase activity,[5],no inhibition
same,IC50,[6],100 nM
same,Ki,[6],97 nM
same,inhibition of lysosomal a-glucosidase,[7],no inhibition
same,IC50,[8],50 nM and ~50 nM
same,Ki,[9],7200 nM

# Reference: US6177447A (Universiteit van Amsterdam, priority 1996, dated 2001)
